Literature values in publication PMC9230590, “Pharmacokinetics and Tissue Distribution of Enavogliflozin in Mice and Rats” (Pharmaceutics, 2022).
Where two headings read alike, the source gives them in different places.

Key:
[1] = design: method as in PMID 32183468; conditions: mice; cited from earlier work
[2] = cited from earlier work
HbA1c = conditions: cited from earlier work
[3] = rats and humans, single oral dose of [14C]dapagliflozin; cited from earlier work
[4] = single oral administration of [14C]ipragliflozin
[5] = single oral administration of [14C]canagliflozin

OC[C@H]1O[C@@H](c2ccc(F)c(Cc3cc4ccccc4s3)c2)[C@H](O)[C@@H](O)[C@@H]1O [ipragliflozin]
ratio of AUC in kidney to AUC in plasma [1]: 38.4 ± 5.3 | cumulative fecal recovery of drug-related radioactivity [2, 4]: 86.9% ± 2.6% | glucuronide metabolite identified in feces [2, 4]: about 64% | unchanged drug identified in feces [2, 4]: less than 5%

OC[C@H]1O[C@@H](c2ccc(Cl)c(Cc3ccc(O[C@H]4CCOC4)cc3)c2)[C@H](O)[C@@H](O)[C@@H]1O [empagliflozin]
reduction of HbA1c (HbA1c; empagliflozin-treated patients): 0.74–0.85%

Cc1ccc([C@@H]2O[C@H](CO)[C@@H](O)[C@H](O)[C@H]2O)cc1Cc1ccc(-c2ccc(F)cc2)s1 [canagliflozin]
reduction of HbA1c (HbA1c; untreated type 2 diabetic (T2DM) patients): 0.97% | fecal recovery of radioactivity [2, 5]: 85.4–93.7% | hydroxylated metabolites in fecal recovery [2, 5]: 7.6–64.3% | unchanged drug in fecal recovery [2, 5]: 3.5–38.7%

CCOc1ccc(Cc2cc([C@@H]3O[C@H](CO)[C@@H](O)[C@H](O)[C@H]3O)ccc2Cl)cc1 [dapagliflozin]
ratio of AUC in kidney to AUC in plasma [1]: 64.6 ± 31.8 | reduction in HbA1c values (HbA1c; monotherapy 2.5–10 mg, once daily for 24 weeks, untreated T2DM patients): 0.67–0.84% | reduction of mean HbA1c compared with conventional monotherapy (HbA1c; with conventional anti-diabetes medication, meta-analysis): 0.54% | drug-related radioactivity (parent and glucuronide metabolite) recovered in urine [3]: more than 90%
